Measured values taken from PubChem BioAssay AID330 (DTP/NCI, 2004).
Where “and” joins values, the source holds several entries; their conditions need not be identical. Identical values can stand only once. Toxic doses and inconclusive results are not listed. How the source made its calls: active means survival T/C of 150% or more; inactive means T/C below 125% in these data. Peptide text beside a SMILES is read from it.

System: P388 leukemia ip, CD2F1 mice, survival T/C
Test: NCI In Vivo Anticancer Drug Screen. Data for tumor model P388 Leukemia (intraperitoneal) in CD2F1 (CDF1) mice
Settings: endpoint: median survival time, higher = longer survival
Outline: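 Mice carrying the transplanted tumor received test compound or vehicle. Survival was recorded in each group, and the value is the treated-group measurement divided by that of the vehicle-treated control group.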

[1] = dose: 50.0 mg/kg/injection, schedule: Q01DX009 (ip), vehicle: saline with Tween-80
[2] = dose: 100.0 mg/kg/injection, schedule: Q01DX009 (ip), vehicle: saline with Tween-80
[3] = dose: 200.0 mg/kg/injection, schedule: Q01DX009 (ip), vehicle: saline with Tween-80
[4] = dose: 50.0 mg/kg/injection, schedule: Q01DX005 (ip), vehicle: saline with Tween-80
[5] = dose: 100.0 mg/kg/injection, schedule: Q01DX005 (ip), vehicle: saline with Tween-80
[6] = dose: 200.0 mg/kg/injection, schedule: Q01DX005 (ip), vehicle: saline with Tween-80
[7] = dose: 60.0 mg/kg/injection, schedule: Q01DX005 (ip), vehicle: saline with Tween-80
[8] = dose: 120.0 mg/kg/injection, schedule: Q01DX005 (ip), vehicle: saline with Tween-80
[9] = dose: 240.0 mg/kg/injection, schedule: Q01DX005 (ip), vehicle: saline with Tween-80
[10] = dose: 50.0 mg/kg/injection, schedule: Q01DX005 (ip), vehicle: Klucel (hydroxypropylcellulose) (HPC)
[11] = dose: 100.0 mg/kg/injection, schedule: Q01DX005 (ip), vehicle: Klucel (hydroxypropylcellulose) (HPC)
[12] = dose: 200.0 mg/kg/injection, schedule: Q01DX005 (ip), vehicle: Klucel (hydroxypropylcellulose) (HPC)

Measured: T/C

COC(=O)[C@@]12OC[C@]34[C@H]([C@@H](O)[C@@H]1O)[C@@]1(C)CC(=O)C(O)=C(C)[C@@H]1C[C@H]3OC(=O)[C@H](OC(=O)/C=C(\C)C(C)CO)[C@@H]24 (stereo partly drawn)
inactive: dose: 0.5 mg/kg/injection, schedule: Q01DX009 (ip), vehicle: saline + alcohol 115 % of control

CCCCCSC1=NC(c2ccc(C)cc2)(c2ccc(C)cc2)C(=O)N1
inactive: dose: 50.0 mg/kg/injection, schedule: Q01DX005 (ip), vehicle: Klucel + Tween-80 100 % of control | dose: 100.0 mg/kg/injection, schedule: Q01DX005 (ip), vehicle: Klucel + Tween-80 100 % of control | dose: 200.0 mg/kg/injection, schedule: Q01DX005 (ip), vehicle: Klucel + Tween-80 98 % of control

O=S(=O)(OC1=CC2c3ccccc3C1c1ccccc12)C(F)(F)F
inactive: dose: 50.0 mg/kg/injection, schedule: Q01DX005 (ip), vehicle: saline + Tween-80 + alcohol 100 % of control | dose: 100.0 mg/kg/injection, schedule: Q01DX005 (ip), vehicle: saline + Tween-80 + alcohol 100 % of control | dose: 200.0 mg/kg/injection, schedule: Q01DX005 (ip), vehicle: saline + Tween-80 + alcohol 103 % of control

CCOC(=O)c1ccc[nH]1
inactive: dose: 25.0 mg/kg/injection, schedule: Q01DX009 (ip), vehicle: saline with Tween-80 104 % of control | [1] 108 % of control | [2] 112 % of control | [3] 103 % of control

CCCCN1CCN(c2ccc([N+](=O)[O-])c3no[n+]([O-])c23)CC1
inactive: dose: 8.0 mg/kg/injection, schedule: Q04DX003 (ip), vehicle: suspension in saline 102 % of control | dose: 16.0 mg/kg/injection, schedule: Q04DX003 (ip), vehicle: suspension in saline 99 % of control | dose: 32.0 mg/kg/injection, schedule: Q04DX003 (ip), vehicle: suspension in saline 108 % of control

O=[N+]([O-])/C=C/c1cc2c(ccc3ccccc32)[nH]1
inactive: [4] 91 % of control | [5] 93 % of control | [6] 99 % of control

CC(C)N1CCC(Oc2ccc3ccccc3n2)C1 (stereo not drawn)
inactive: dose: 50.0 mg/kg/injection, schedule: Q01DX009 (ip), vehicle: Klucel (hydroxypropylcellulose) (HPC) 100 % of control | dose: 100.0 mg/kg/injection, schedule: Q01DX009 (ip), vehicle: Klucel (hydroxypropylcellulose) (HPC) 91 % of control

CN(CO)N=Nc1ccc(C(F)(F)F)cc1
inactive: [4] 96 % of control | [5] 113 % of control | [6] 113 % of control

CCCCC/C([O-])=C1/C(=O)N(c2ccccc2)N=C1C.CCCCC/C([O-])=C1/C(=O)N(c2ccccc2)N=C1C.[Cu+2]
inactive: [7] 96 % of control | [8] 101 % of control

C=CC(c1ccccc1)c1cc2c(cc1OC)OCO2 (stereo not drawn)
inactive: [4] 105 % of control | [5] 96 % of control | [6] 100 % of control

CCOc1nc(N)nc(C)c1N=Nc1ccc(Br)cc1
inactive: dose: 60.0 mg/kg/injection, schedule: Q01DX005 (ip), vehicle: Klucel + Tween-80 100 % of control | dose: 120.0 mg/kg/injection, schedule: Q01DX005 (ip), vehicle: Klucel + Tween-80 104 % of control | dose: 240.0 mg/kg/injection, schedule: Q01DX005 (ip), vehicle: Klucel + Tween-80 99 % of control

CCOCCOCCOC(C)Oc1ccc(Cl)cc1C (stereo not drawn)
inactive: [7] 90 % of control | [8] 92 % of control | [9] 98 % of control

COc1ccc(OC)c2c(NCCNCCO)cc(NCCNCCO)nc12
inactive: dose: 15.0 mg/kg/injection, schedule: Q01DX005 (ip), vehicle: saline 100 % of control | dose: 30.0 mg/kg/injection, schedule: Q01DX005 (ip), vehicle: saline 95 % of control | dose: 60.0 mg/kg/injection, schedule: Q01DX005 (ip), vehicle: saline 97 % of control

COc1cc(CC(OC)OC)no1
inactive: [7] 102 % of control | [8] 103 % of control | [9] 102 % of control

Nc1ncnc2c1ccn2C1OC(CSCCC(N)C(=O)O)C(O)C1O (stereo not drawn)
inactive: dose: 0.5 mg/kg/injection, schedule: Q01DX009 (ip), vehicle: water 98 % of control | dose: 1.0 mg/kg/injection, schedule: Q01DX009 (ip), vehicle: water 102 % of control | dose: 2.0 mg/kg/injection, schedule: Q01DX009 (ip), vehicle: water 97 % of control | dose: 4.0 mg/kg/injection, schedule: Q01DX009 (ip), vehicle: water 93 % of control | dose: 8.0 mg/kg/injection, schedule: Q01DX009 (ip), vehicle: water 104 % of control

Cc1ccc(S(=O)(=O)C(Br)CC(=O)c2ccccc2)cc1 (stereo not drawn)
inactive: dose: 100.0 mg/kg/injection, schedule: Q04DX002 (ip), vehicle: saline 100 % of control | dose: 200.0 mg/kg/injection, schedule: Q04DX002 (ip), vehicle: saline 101 % of control | dose: 400.0 mg/kg/injection, schedule: Q04DX002 (ip), vehicle: saline 109 % of control

CCCCCCC[CH2][Sn]([Cl])([Cl])[Cl]
inactive: dose: 100.0 mg/kg/injection, schedule: Q04DX003 (ip), vehicle: saline 98 % of control | dose: 200.0 mg/kg/injection, schedule: Q04DX003 (ip), vehicle: saline 102 % of control | dose: 400.0 mg/kg/injection, schedule: Q04DX003 (ip), vehicle: saline 104 % of control

O=c1c2[nH]c3ccccc3sc=2c(=O)c2ccccc12
inactive: [1] 90 % of control | [2] 91 % of control | [3] 106 % of control

Cc1cccc2c(-c3ccccc3)c3cccc[n+]3cc12
inactive: dose: 0.78 mg/kg/injection, schedule: Q01DX005 (ip), vehicle: Klucel (hydroxypropylcellulose) (HPC) 100 % of control and 103 % of control | dose: 1.56 mg/kg/injection, schedule: Q01DX005 (ip), vehicle: Klucel (hydroxypropylcellulose) (HPC) 108 % of control and 89 % of control | dose: 3.12 mg/kg/injection, schedule: Q01DX005 (ip), vehicle: Klucel (hydroxypropylcellulose) (HPC) 103 % of control and 97 % of control | dose: 6.25 mg/kg/injection, schedule: Q01DX005 (ip), vehicle: Klucel (hydroxypropylcellulose) (HPC) 94 % of control

O=[N+]([O-])c1cc(NC(=S)SCc2ccccc2)ccc1Cl
inactive: dose: 50.0 mg/kg/injection, schedule: Q01DX009 (ip), vehicle: saline 108 % of control | dose: 50.0 mg/kg/injection, schedule: Q01DX009 (ip), vehicle: suspension in saline 92 % of control | dose: 100.0 mg/kg/injection, schedule: Q01DX009 (ip), vehicle: saline 115 % of control | dose: 200.0 mg/kg/injection, schedule: Q01DX009 (ip), vehicle: saline 108 % of control | dose: 200.0 mg/kg/injection, schedule: Q01DX009 (ip), vehicle: suspension in saline 92 % of control

c1ccc(-c2nsc3ccccc23)cc1
inactive: [10] 99 % of control | [11] 106 % of control | [12] 101 % of control

NC(Cc1ccccc1)C(=O)NC(CC(=O)O)C(=O)O (stereo not drawn) (H-Phe-Asp-OH; configuration not given here)
inactive: [10] 99 % of control | [11] 99 % of control | [12] 109 % of control

COc1ccc2cc1Oc1ccc(cc1)CC1c3c(c(OC)c(OC)c(OC)c3Oc3cc4c(cc3OC)CCN(C)C4C2)CCN1C (stereo not drawn)
inactive: dose: 15.0 mg/kg/injection, schedule: Q01DX009 (ip), vehicle: saline 94 % of control | dose: 30.0 mg/kg/injection, schedule: Q01DX009 (ip), vehicle: saline 94 % of control | dose: 60.0 mg/kg/injection, schedule: Q01DX009 (ip), vehicle: saline 103 % of control

COc1ccc(/C=C/Cc2cc3c(cc2OC(C)=O)OCO3)cc1
inactive: [7] 98 % of control | [8] 101 % of control | [9] 93 % of control

COc1cccc2c1C(=O)c1c(O)c(CCl)cc(O)c1C2=O
inactive: dose: 3.75 mg/kg/injection, schedule: Q01DX005 (ip), vehicle: saline with Tween-80 99 % of control | dose: 7.5 mg/kg/injection, schedule: Q01DX005 (ip), vehicle: saline with Tween-80 92 % of control | dose: 15.0 mg/kg/injection, schedule: Q01DX005 (ip), vehicle: saline with Tween-80 89 % of control

COc1cc(CC(CC(=O)O)C(=O)O)cc(OC)c1OC (stereo not drawn)
inactive: [10] 97 % of control | [11] 88 % of control | [12] 97 % of control

CC(C)(C)c1cc2c3c(c1)C(C(F)(F)F)(C(F)(F)F)OS3(=O)(O)OC2(C(F)(F)F)C(F)(F)F
inactive: dose: 25.0 mg/kg/injection, schedule: Q01DX005 (ip), vehicle: saline with Tween-80 100 % of control | [4] 98 % of control | [5] 103 % of control
